Molecular target: T1, Aβ 1-42 fibrils (Homo sapiens, UniProt P05067)
T1 construct: purchased Bachem Inc
Experiment: Circular dichroism spectroscopy of Aβ 1-42 fibrils
Format: biochemical
Procedure: Circular dichroism (CD) spectroscopy is a method that can be used to determine the effects of test compounds to disrupt the secondary structure conformation of amyloid fibrils. In one study, as described in this example, circular dichroism spectroscopy was used to determine the effects of different compounds of the invention on β-sheet conformation of Aβ 1-42 fibrils. For this study, Aβ 1-42 (Bachem Inc., Torrance, Calif.) was first dissolved in a 2 mM NaOH solution, maintaining the pH of these solutions above 10. […] Aβ 1-42 was then incubated at 37° C. in the absence or presence of different compounds at an Aβ:test compound wt/wt ratios of 1:0.1, 1:1 and 1:10. After 3 days of incubation, CD spectra were recorded on a Jasco 810 spectropolarimeter (Easton, Md.). All CD spectra were collected with 0.05 cm quartz cells. Wavelength traces were scanned from 190-260 nm at 0.5 nm increments with a bandwidth of 5 nm, at a scan speed of 10 nm/minute, a response time of 32 seconds, and a data pitch of 0.5 nm. The whole system was equilibrated and continuously flushed with nitrogen at 10 ml/minute. […] Ellipticity in degrees was converted to MRE ([Q]; molar residue ellipticity) using the formula [Q]=100•[…]; where Q is the ellipticity in degrees; […]

T1 sequence (P05067 672-713): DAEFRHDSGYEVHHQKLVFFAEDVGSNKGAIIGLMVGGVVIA

## O=C(Nc1ccc(O)c(O)c1)c1ccc(O)c(O)c1 [Compound 51, 3,4-dihydroxybenzoic acid 3,4-dihydroxyanilide]
3 days co-incubation, 25 μM Aβ 1-42 (FIG. 1, FIG. 2)
  disruption of β-sheet structure in Aβ 1-42 fibrils (CD minima at 218 nm): marked disruption of β-sheet structure
Aβ:test compound wt/wt ratio of 1:10 (FIG. 3)
  disruption of β-sheet structure of Aβ 1-42 fibrils (CD minima at 218 nm): completely disrupt the β-sheet structure
Aβ:test compound wt/wt ratios of 1:0.1, 1:1 and 1:10 (FIG. 3)
  dose-response of disruption of β-sheet structure of Aβ 1-42 fibrils (CD minima at 218 nm): dose-dependent decrease in the minima

Reference: patent US20070276034A1, “Compounds, compositions and methods for the treatment of synucleinopathies” (priority 2002, published 2007)
